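Cells were grown in 96-well plates and exposed to each compound for 48 hours at five concentrations; endpoints were interpolated linearly between bracketing concentrations, or set to the highest concentration if not reached. GI50 marks 50% less growth. TGI is the concentration that stops growth completely.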
Columns and labels:
Test in all cases: DTP human tumour cell line panel, 48 h
[1] = system: UACC-257 melanoma
[2] = system: SN12C renal
[3] = system: OVCAR-4 ovarian
[4] = system: SF-268 CNS
[5] = system: UACC-62 melanoma
[6] = system: HL-60(TB) leukemia
[7] = system: NCI-H522 lung
[8] = system: CCRF-CEM leukemia
[9] = system: KM12 colon
[10] = system: T-47D breast
[11] = system: HCC-2998 colon

Compound	TGI [1]	TGI [2]	TGI [3]	TGI [4]	TGI [5]	TGI [6]	TGI [7]	TGI [8]	TGI [9]	TGI [10]	TGI [11]	GI50 [8]	GI50 [1]	GI50 [2]	GI50 [3]	GI50 [11]	GI50 [5]	GI50 [6]	GI50 [10]	GI50 [9]
Cc1ccc(C(C)C)c(OCC(=O)N/N=C/c2c[nH]c3ccc(Br)cc23)c1	15.9 µM	13 µM	13.6 µM	23.9 µM	8.92 µM	7.42 µM	8.17 µM	7 µM	6.3 µM	24.8 µM	–	–	–	–	–	–	–	–	–	–
O=C1C(c2c(O)[nH]c3ccc(Cl)cc23)=Nc2ccccc21	> 100 µM	> 100 µM	5.42 µM	33.6 µM	> 91.3 µM	> 100 µM	> 100 µM	> 100 µM	> 100 µM	> 100 µM	> 26.8 µM	–	–	–	–	–	–	–	–	–
Cc1cccc2c1Sc1ccccc1C2NC(=O)CN(C)C (stereo unspecified)	> 100 µM	> 100 µM	> 100 µM	> 100 µM	> 100 µM	> 100 µM	–	> 100 µM	–	–	> 100 µM	–	–	–	–	–	–	–	–	–
CN(C)c1cccc(OC(=O)NCCCl)c1	> 100 µM	> 100 µM	> 100 µM	> 100 µM	> 100 µM	> 100 µM	> 100 µM	> 100 µM	> 100 µM	–	> 100 µM	94.6 µM	–	–	–	–	–	–	–	–
O=C(Sc1n[nH]c(=O)[nH]c1=O)c1cccc2nc3ccccc3nc12	39 µM	> 100 µM	> 100 µM	> 100 µM	> 100 µM	> 100 µM	–	> 100 µM	> 100 µM	> 100 µM	> 100 µM	–	–	–	–	–	–	–	–	–
CSCC(CO)NC(=O)/C=C/c1c(C)[nH]c(=O)[nH]c1=O (stereo unspecified)	> 875 µM	> 875 µM	389 µM	> 875 µM	> 875 µM	> 875 µM	499 µM	> 875 µM	> 875 µM	–	479 µM	–	–	–	–	–	–	–	–	–
O=S(O)CCCSSSCCCS(=O)O	> 100 µM	> 100 µM	> 100 µM	> 100 µM	> 100 µM	> 100 µM	> 100 µM	> 100 µM	> 100 µM	–	> 100 µM	–	–	–	–	–	–	–	–	–
N#C/C(=C\c1ccc([N+](=O)[O-])o1)c1n[nH]c(Cc2ccccc2)n1	4.26 µM	4.03 µM	3.55 µM	2.91 µM	3.55 µM	6.83 µM	1.57 µM	1.81 µM	6.69 µM	4.2 µM	3.12 µM	–	–	–	–	–	–	–	–	–
c1csc(-c2ccc(CNc3c4ccccc4nc4ccccc34)cc2)c1	4.06 µM	28.8 µM	3.07 µM	–	27 µM	3.28 µM	–	3.91 µM	–	55.6 µM	3.01 µM	1.28 µM	2 µM	9.15 µM	1.53 µM	1.53 µM	6.74 µM	1.45 µM	13.6 µM	–
NNC(=O)c1cc([N+](=O)[O-])ccc1NC(=O)C12CC3CC(CC(C3)C1)C2	59.3 µM	> 100 µM	23 µM	> 100 µM	28 µM	22.1 µM	15.1 µM	24.9 µM	> 100 µM	72.2 µM	83.4 µM	–	–	–	–	–	–	–	–	–
CC(=O)OC1CC(OC2C(O)CC(OC3C(O)CC(OC4CCC5(C)C(CCC6C5CCC5(C)C(C7=CC(=O)OC7)CCC65O)C4)OC3C)OC2C)OC(C)C1OC1OC(CO)C(O)C(O)C1O (stereo unspecified)	0.422 µM	0.286 µM	0.162 µM	0.129 µM	0.334 µM	0.0827 µM	0.0291 µM	> 100 µM	0.31 µM	0.344 µM	0.29 µM	–	–	–	–	–	–	–	–	–
COC(=O)c1sc2c(c1C(=O)OC)C(=NC(C)(C)C)SC2=NC(C)(C)C	32.6 µM	34.5 µM	44 µM	36 µM	33.2 µM	28.6 µM	37.5 µM	33.5 µM	33.8 µM	31.4 µM	28.3 µM	–	–	–	–	–	–	–	–	–
COc1cc(NCCC(=O)O)c2ncccc2c1	> 100 µM	> 100 µM	> 100 µM	> 100 µM	> 100 µM	> 100 µM	> 100 µM	> 100 µM	–	> 100 µM	–	–	–	–	–	–	–	–	–	–
c1ccc2c(c1)SP1Sc3ccccc3P21 (stereo unspecified)	> 100 µM	> 100 µM	> 100 µM	> 100 µM	> 100 µM	> 100 µM	> 100 µM	> 100 µM	> 100 µM	–	> 100 µM	–	–	–	–	–	–	–	–	–
CN(c1ccccc1)c1nc(=[N+]2CCCC2)ss1	> 100 µM	> 100 µM	> 100 µM	> 100 µM	> 100 µM	> 100 µM	–	> 100 µM	> 100 µM	–	> 100 µM	–	–	–	–	–	–	–	–	–
CO/C=C1\OC(=O)C=C1OC	> 100 µM	> 100 µM	> 100 µM	> 100 µM	> 100 µM	> 100 µM	> 100 µM	> 100 µM	> 100 µM	–	> 100 µM	–	–	–	–	–	–	–	–	–
Clc1cc(OCc2nn3c(Cc4ccccc4)nnc3s2)c(Cl)cc1OCc1nn2c(Cc3ccccc3)nnc2s1	> 100 µM	> 100 µM	> 100 µM	> 100 µM	> 100 µM	> 100 µM	> 100 µM	> 100 µM	> 100 µM	> 100 µM	> 100 µM	–	–	–	–	–	–	–	–	–
CC[C@@H]([C@H](O)c1ccccc1Cl)[N+](=O)[O-]	> 100 µM	> 100 µM	> 100 µM	> 100 µM	> 100 µM	> 100 µM	> 100 µM	> 100 µM	> 100 µM	> 100 µM	> 100 µM	–	–	–	–	–	–	–	–	–
Nc1nc(Cl)c(N)c(NCC2(CO)CCC(CCc3ccccc3)C2)n1 (stereo unspecified)	18.8 µM	63.2 µM	77.5 µM	40.2 µM	26 µM	31.3 µM	26.3 µM	48.8 µM	28.9 µM	> 59 µM	31.9 µM	–	–	–	–	–	–	–	–	–
Cc1ccc(Nc2nc(=O)c3c([nH]c4ccccc43)s2)cc1	31.5 µM	31.6 µM	55.4 µM	35.6 µM	21 µM	36.5 µM	32.4 µM	53.3 µM	16.2 µM	43.7 µM	–	–	–	–	–	–	–	–	–	–
c1ccc2c(c1)SCCc1cn[nH]c1-2	> 100 µM	> 100 µM	> 100 µM	> 100 µM	> 100 µM	> 100 µM	> 100 µM	> 100 µM	> 100 µM	–	> 100 µM	–	–	–	–	–	–	–	–	–
COCCNCc1ccc(-c2cc3nccc(Oc4ccc(NC(=O)C5(C(=O)Nc6ccc(F)cc6)CC5)cc4F)c3s2)nc1	3.33 µM	–	4.79 µM	–	4.66 µM	5.12 µM	–	7.06 µM	2.95 µM	6.29 µM	–	2.55 µM	1.59 µM	–	1.67 µM	–	1.89 µM	2.29 µM	2.01 µM	0.0411 µM
c1ccc(C2=NN=C3C(c4ccccc4)=Nc4ccccc4N3C2)cc1	32.4 µM	> 100 µM	42 µM	> 60.2 µM	> 100 µM	22.2 µM	22.8 µM	20.2 µM	> 100 µM	> 100 µM	> 100 µM	–	–	–	–	–	–	–	–	–

From PubChem BioAssay (NCI)
